According to patent US20160137639A1, “TRIAZOLE-ISOXAZOLE COMPOUND AND MEDICAL USE THEREOF” (JAPAN TOBACCO INC., priority 2012, published 2016):
Read-outs that look alike come from different tables or passages of the source.

Legend:
human RORγ = target: T1, human RORγ (Homo sapiens, UniProt P51449); assay: Luciferase reporter gene assay of inhibitory effect against RORγ transcriptional activity (GAL4-hRORγ plasmid in CHO cells); assay type: cell-based
T1 construct: human, NM_005060.3 and from Ser253 to Lys518; expressed in transfected cells; host or cells: CHO cells (transient co-transfection with pG5-Luc reporter)
T1 sequence (P51449 253-518): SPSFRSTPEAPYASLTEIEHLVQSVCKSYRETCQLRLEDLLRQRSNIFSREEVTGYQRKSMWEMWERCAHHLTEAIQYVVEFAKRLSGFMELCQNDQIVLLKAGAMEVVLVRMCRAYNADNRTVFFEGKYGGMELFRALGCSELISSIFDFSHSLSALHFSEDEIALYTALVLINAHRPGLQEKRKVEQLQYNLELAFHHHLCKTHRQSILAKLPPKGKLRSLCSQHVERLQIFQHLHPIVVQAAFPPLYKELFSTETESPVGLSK

mouse RORγ = target: T2, mouse RORγ (Mus musculus, UniProt P51450); assay: Luciferase reporter gene assay of inhibitory effect against RORγ transcriptional activity (GAL4-mRORγ plasmid in CHO cells); assay type: cell-based
T2 construct: mouse, NM_011281.2 and from Ile251 to Lys516; expressed in transfected cells; host or cells: CHO cells (transient co-transfection with pG5-Luc reporter)
T2 sequence (P51450 251-516): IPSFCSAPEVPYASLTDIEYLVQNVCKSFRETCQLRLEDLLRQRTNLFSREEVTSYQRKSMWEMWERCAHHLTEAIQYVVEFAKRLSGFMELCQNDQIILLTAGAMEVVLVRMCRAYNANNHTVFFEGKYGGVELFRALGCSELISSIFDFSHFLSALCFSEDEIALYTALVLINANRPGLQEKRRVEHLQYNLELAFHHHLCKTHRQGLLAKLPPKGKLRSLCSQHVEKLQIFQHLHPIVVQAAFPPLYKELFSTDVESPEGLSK
Summary of the method: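 CHO cells transiently co-transfected with GAL4-mouse RORγ LBD (Ile251–Lys516) and GAL4-dependent luciferase reporter; eight compound concentrations, 0.1% DMSO, 2 days at 37 °C. Luminescence as %-of-vehicle control; EC50 by curve fit, cytotoxic concentrations excluded.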

SMILES | EC50 (human RORγ; read-out: LUC EC50 hRORg) [µM] | EC50 (mouse RORγ; read-out: LUC EC50 mRORg) [µM] | EC50 (human RORγ; read-out: LUC EC50 (μM) hRORg) [µM] | EC50 (mouse RORγ; read-out: LUC EC50 (μM) mRORg) [µM]
Cc1ccc(NC(=O)[C@@H](CC(=O)O)Cc2noc([C@H]3C[C@@H](CC(C)(C)C)C3)c2C2CC2)c(Cl)c1 [Example F-677] | < 3 | < 3 |  | 
Cc1ccc(NC(=O)C[C@H](CCO)c2nnc(CCCC(C)(C)C)n2CC(F)(F)F)c(C)c1 [Example F-380] |  |  | < 3 | < 3
CCn1c(CCC(=O)Nc2cc(C)cc(C)c2)nnc1C1Cc2ccccc2C1 [Example F-16] |  |  | > 3 | < 3
Cc1cc(Cl)c(NC(=O)C[C@H](CCC(=O)O)c2noc(-c3cc(CCC(C)(C)C)on3)c2C2CC2)cc1F [Example E-45] |  |  | < 3 | < 3
Cc1cc(C)c(NC(=O)C[C@H](CCO)c2nnc([C@H]3C[C@@H](CC(C)C)C3)n2C2CC2)c(F)c1 [Example F-548] | < 3 | < 3 |  | 
Cc1c(Cl)cccc1NC(=O)CC(CCO)c1nnc(CCC2CCCCC2)n1C1CC1 (racemic) [Example F-247] |  |  | < 3 | < 3
Cc1cccc(O)c1NC(=O)CCc1nnc(CCC(C)C)n1C1CC1 [Example F-104] |  |  | > 3 | > 3
Cc1ccc(NC(=O)CCc2nnc(CCC3CCCCC3)n2CC(F)(F)F)c(C)c1 [Example F-142] |  |  | < 3 | < 3
Cc1ccc(NC(=O)C[C@H](CCC(=O)O)c2noc(-c3cc(C(F)(F)C(C)(C)C)on3)c2C2CC2)c(Cl)c1 [Example E-40] |  |  | < 3 | < 3
Cc1cc(F)ccc1NC(=O)[C@@H]1CC(F)(F)C[C@H]1c1nnc(-c2cc(CC(C)C)on2)n1C1CC1 [Example F-593] | > 3 | < 3 |  | 
Cc1c(Cl)cccc1NC(=O)CCc1nnc(CCN2CCC(F)(F)CC2)n1C1CC1 [Example F-261] |  |  | > 3 | < 3
CCn1c(CCC(=O)Nc2cccc(Cl)c2C)nnc1CCC1CCCCC1 [Example F-39] |  |  | < 3 | < 3
Cc1c(Cl)cccc1NC(=O)CCc1nnc(CCC2CCCCC2)n1C1CC1 [Example F-94] |  |  | < 3 | < 3
Cc1ccc(NC(=O)[C@H]2CN(CC(F)(F)F)C[C@@H]2c2nnc([C@H]3C[C@@H](CC(C)(C)C)C3)n2C2CC2)c(C)c1 [Example F-541] | < 3 | < 3 |  | 
Cc1ccc(NC(=O)C[C@H](CC(=O)O)c2noc([C@H]3C[C@@H](CC(C)C)C3)c2C2CC2)cn1 [Example F-667] | > 3 | < 3 |  | 
Cc1ccc(CCNC(=O)CCc2nnc(CCC(C)C)n2C2CC2)cc1 [Example F-67] |  |  | > 3 | > 3
CC(=O)N1C[C@H](C(=O)Nc2ccc(C)cc2C)[C@@H](c2nnc(C(O)CCC(C)(C)C)n2C2CC2)C1 (single isomer, unassigned) [Example F-348] |  |  | > 3 | > 3
CNC(=O)N1C[C@H](C(=O)Nc2ccc(C)cc2C)[C@@H](c2nnc(CCCC(C)(C)C)n2C2CC2)C1 (racemic) [Example F-446] |  |  | < 3 | < 3
Cc1c(Cl)cccc1NC(=O)CC(CCN)c1nnc(CCCC(C)C)n1C1CC1 (racemic) [Example F-225] |  |  | > 3 | > 3
CC(C)CCc1nnc(CCC(=O)NCc2ccccc2)n1C1CC1 [Example F-57] |  |  | > 3 | > 3
Cc1cccc(CNC(=O)CCc2nnc(CCC(C)C)n2C2CC2)c1C [Example F-118] |  |  | > 3 | > 3
CC(=O)N1C[C@H](C(=O)Nc2ccc(C)cc2C)[C@@H](c2nnc([C@H]3C[C@H](c4ccccc4)C3)n2C2CC2)C1 (racemic) [Example F-345] |  |  | < 3 | < 3
Cc1ccc(NC(=O)C[C@H](CCO)c2nnc(-c3cc(CC(C)(C)C)on3)n2C2CC2)c(C)c1 [Example F-612] | < 3 | < 3 |  | 
Cc1c(Cl)cccc1NC(=O)CCc1nnc(CCC2CCCN(C)C2)n1C1CC1 (racemic) [Example F-203] |  |  | > 3 | > 3
Cc1ccc(NC(=O)CC(Cc2ncco2)c2nnc([C@H]3C[C@@H](CC(C)C)C3)n2C2CC2)c(C)c1 (mixture of isomers) [Example F-454] |  |  | < 3 | < 3
CCN(CC)C(=O)CN1C[C@H](C(=O)Nc2ccc(C)cc2C)[C@@H](c2nnc([C@H]3C[C@@H](CC(C)(C)C)C3)n2C2CC2)C1 [Example F-649] | < 3 | < 3 |  | 

SMILES | EC50 (human RORγ; read-out: LUC EC50 hRORg) [µM] | EC50 (mouse RORγ; read-out: LUC EC50 mRORg) [µM] | EC50 (human RORγ; read-out: LUC EC50 (μM) hRORg) [µM] | EC50 (mouse RORγ; read-out: LUC EC50 (μM) mRORg) [µM]
Cc1ccc(NC(=O)CC(CC(=O)O)c2nnc([C@H]3C[C@@H](CC(C)C)C3)n2C2CC2)c(C)c1 (mixture of isomers) [Example F-499] | > 3 | < 3 |  | 
CC1(Cc2cc(-c3onc([C@@H](CCC(=O)O)CC(=O)Nc4ccc(F)cc4Cl)c3C3CC3)no2)CC1 [Example E-63] |  |  | < 3 | < 3
Cc1c(Cl)cccc1NC(=O)CCc1nnc(C(C)CC(C)C)n1C1CC1 (racemic) [Example F-98] |  |  | > 3 | < 3
CC(=O)N1C[C@H](C(=O)Nc2cccc(C)c2C)[C@@H](c2nnc(CCCC(C)(C)C)n2C2CC2)C1 (racemic) [Example F-324] |  |  | < 3 | < 3
Cc1ccc(NC(=O)C(C)C(CCO)c2nnc([C@H]3C[C@@H](CC(C)C)C3)n2C2CC2)c(C)c1 (single isomer, unassigned) [Example F-490] |  |  | > 3 | > 3
Cc1ccc(NC(=O)C[C@H](CCCO)c2nnc([C@H]3C[C@@H](CC(C)C)C3)n2C2CC2)c(C)c1 [Example F-511] | < 3 | < 3 |  | 
Cc1ccc(NC(=O)CC(CN(C)C)c2nnc(CCCC(C)C)n2C2CC2)c(C)c1 (racemic) [Example F-278] |  |  | > 3 | < 3
CC(=O)N1C[C@H](C(=O)Nc2cc(C)ccc2C)[C@@H](c2nnc(CCCC(C)(C)C)n2C2CC2)C1 (racemic) [Example F-331] |  |  | < 3 | < 3
CC(=O)N1C[C@H](C(=O)Nc2ccc(C)cc2C)[C@@H](c2nnc([C@H]3C[C@@H](OC(C)(C)C)C3)n2C2CC2)C1 (racemic) [Example F-382] |  |  | < 3 | < 3
CC(C)(C[C@H]1C[C@@H](c2onc(C(CCC(=O)O)CC(=O)Nc3ccc(C(=O)O)cc3Cl)c2C2CC2)C1)C(=O)O (stereo partly drawn) [Example F-746] | > 3 | > 3 |  | 
Cc1ccc(NC(=O)C[C@H](CCC(=O)O)c2onc(-c3cc(CC(C)(C)C)on3)c2C2CC2)c(Cl)c1 [Example E-75] |  |  | < 3 | < 3
CC(=O)N1C[C@H](C(=O)Nc2ccc(C)cc2C)[C@@H](c2nnc(-c3cc(C(C)C)on3)n2C2CC2)C1 (racemic) [Example F-350] |  |  | < 3 | < 3
CC(C)(C)Cc1cc(-c2onc([C@H](CCC(=O)O)CC(=O)Nc3ccc(Cl)cc3Cl)c2C2CC2)no1 [Example E-79] | < 3 | < 3 |  | 
COc1cc(C)ccc1CNC(=O)CC(CCO)c1nnc(CCC(C)C)n1C1CC1 (racemic) [Example F-176] |  |  | > 3 | > 3
CCn1c(CCC(=O)Nc2cccc(Cl)c2C)nnc1CCC(C)(C)C [Example F-53] |  |  | > 3 | < 3
CNC(=O)CC(CC(=O)Nc1ccc(C)cc1C)c1nnc(CCCC(C)C)n1C1CC1 (racemic) [Example F-265] |  |  | > 3 | < 3
CC(C)CCc1nnc(CCC(=O)NCc2cccc3[nH]cnc23)n1C1CC1 [Example F-115] |  |  | > 3 | > 3
Cc1ccc(NC(=O)[C@H]2CCCN(C)[C@@H]2c2nnc(CCC3CCCCC3)n2C2CC2)c(C)c1 [Example F-295] |  |  | < 3 | < 3
CC(=O)N1C[C@H](C(=O)Nc2ccc(C)cc2C)[C@@H](c2nnc(C3CC4(CCC(F)(F)CC4)C3)n2C2CC2)C1 [Example F-620] | < 3 | < 3 |  | 
Cc1ccc(NC(=O)[C@@H](CC(=O)O)Cc2noc([C@H]3C[C@@H](CC(C)C)C3)c2C2CC2)c(C)c1 [Example F-668] | > 3 | < 3 |  | 
Cc1ccccc1NC(=O)CCc1nnc(CCC(C)C)n1C1CC1 [Example F-64] |  |  | > 3 | > 3
Cc1ccc(NC(=O)[C@H]2CN(C(C)C)C[C@@H]2c2nnc([C@H]3C[C@@H](CC(C)C)C3)n2C2CC2)c(C)c1 [Example F-597] | < 3 | < 3 |  | 
Cc1ccc(NC(=O)C[C@H](CCO)c2nnc(CCCC(C)C)n2C2CC2)c(C)c1 [Example F-314] |  |  | < 3 | < 3
Cc1ccc(NC(=O)[C@H]2CN(c3nc(C)cs3)C[C@@H]2c2nnc(CCCC(C)(C)C)n2C2CC2)c(C)c1 (racemic) [Example F-448] |  |  | < 3 | < 3
Cc1ccc(NC(=O)C[C@H](CCCO)c2noc([C@H]3C[C@@H](CC(C)(C)C)C3)c2C2CC2)c(C)n1 [Example F-689] | < 3 | < 3 |  | 
